Source: patent US10092556B2, “Piperidine compound or salt thereof” (TAIHO PHARMACEUTICAL CO., LTD., priority 2012, dated 2018)

How the values were obtained:
[1] = Evaluation of oral absorbability (plasma concentration after oral administration); type: in vivo; conditions: BALB/cA mouse, 0.5% HPMC, 0.5-6 hours
Procedure: The test compound was suspended or dissolved in 0.5% HPMC and orally administered to a BALB/cA mouse. The blood was drawn from the retro-orbital venous plexus 0.5, 1, 2, 4, and 6 hours after oral administration to obtain plasma. The concentration of the compound in the plasma thus obtained was measured by LCMS and the oral absorbability was evaluated.

[2] = system: human uterine cervical cancer cell line (Hela-Luc); assay: Evaluation of the anti-tumor effect (2), Hela-Luc subcutaneous transplant in nude mouse; type: in vivo; conditions: Day 11, paclitaxel 20 mg/kg iv day 1
[3] = system: human-derived stomach cancer cell line SNU-16; assay: Inhibitory effect on cell proliferation (CellTiter-Glo, 72 hours); type: cell-based; conditions: SNU-16, 72 hours
Text: Cells of the human-derived stomach cancer cell line SNU-16 were each routinely subcultured in the 10% fetal bovine serum (FBS)-containing RPMI-1640 medium and 10% FBS-containing Dulbecco's Modified Eagle Medium (DMEM) in order to maintain cell density of no more than 80%. In order to initiate a test for the inhibitory activity on cell proliferation, cells were each suspended in the aforementioned medium and seeded in each well of a 96-well flat bottom plate (black plate with a transparent bottom) at 2,500 or 3,000 cells per well. The cells were then cultured for one day at 37° C. in an incubator containing 5% carbon dioxide gas. The next day, the compound of the present invention and the subject compound were dissolved in DMSO, and using DMSO, the test compounds were serially diluted to a concentration of 200 times the final concentration. The solution of the test compounds in DMSO was diluted with the medium used for culturing, and then added to each well of the cell culture plate at a final DMSO concentration of 0.5%. The cells were cultured for 72 hours at 37° C. in an incubator containing 5% carbon dioxide gas. The cells were counted at the time of addition of the test compounds and 72 hours after culturing using the CellTiter-Glo Luminescent Cell Viability Assay kit (the product of Promega) based on the protocol recommended by Promega. The reagent included in the kit was added to each plate, followed by stirring, and the plates were left to stand at room temperature for 10 minutes. Upon completion of the reaction, the luminescence signal was measured using a microplate reader.
The cell proliferation inhibitory rate was calculated from the following formula and the concentration of the test compound at which the cell proliferation was inhibited by 50% (GI50 (nM)) was determined. Cell proliferation inhibitory rate (%)=(C−T)/(C−C0)×100 T: Luminescence signal in a well with the addition of the test compound C: Luminescence signal in a well without the addition of the test compound C0: Luminescence signal in a well measured before the addition of the compound

[4] = system: human uterine cervical cancer cell line (Hela-Luc); assay: Evaluation of the anti-tumor effect (1), Hela-Luc subcutaneous transplant in nude mouse; conditions: Day 23; paclitaxel 30 mg/kg iv day 1; compound 60 mg/kg oral twice a day on day 2 and 3
Text: The luciferase-introduced human uterine cervical cancer cell line (Hela-Luc) was subcutaneously transplanted into a nude mouse, and when the volume of the grafted tumor reached 100 to 200 mm^3, five mice in one group were grouped into the single drug administration group and combinational administration group by a randomized stratification method so as to achieve a uniform tumor volume in each group (day 1). […] In order to compare the anti-tumor effect brought about by drug administration, setting the tumor volume at the time of grouping at 1, the relative tumor volume (RTV) was determined in accordance with the following formula as a rate of tumor proliferation. RTV=(Tumor volume on the day of measurement of tumor volume)/(Tumor volume at the time of grouping)
Meanwhile, as the index of systemic toxicity caused by drug administration, the body weight change (BWC) was used. BWC (%)=([(Body weight of mouse on the day of body weight measurement)−(Body weight of mouse at the time of grouping)]/(Body weight of mouse at the time of grouping))×100

[5] = Table 22, Compound 13 30 mg/kg oral twice a day on day 2 and 3
[6] = Table 23, Compound 22 100 mg/kg single, 60 mg/kg in combination, oral twice a day on day 2 and 3

oral absorbability (plasma concentration after oral administration) [1] | GI50 [3] | Structure (SMILES) | BWC (body weight change) [2, 5] | BWC (body weight change) [2, 6] | BWC (body weight change) [4]
favorable oral absorbability | 60 nM | Cc1cc(Nc2nc(CC3(C(=O)O)CCN(C(=O)c4cccc(Cl)c4F)CC3)ccc2F)n[nH]1 [Example 13, 1-(3-chloro-2-fluorobenzoyl)-4-((5-fluoro-6-(5-methyl-1H-pyrazol-3-ylamino)pyridin-2-yl)methyl)piperidine-4-carboxylic acid] | 6.0% |  | 
favorable oral absorbability | 970 nM | Cc1cc(Nc2nc(CC3(c4noc(C)n4)CCN(C(=O)c4cccc(Cl)c4F)CC3)ccc2F)n[nH]1 [Example 22, (3-chloro-2-fluorophenyl)(4-((5-fluoro-6-(5-methyl-1H-pyrazol-3-ylamino)pyridin-2-yl)methyl)-4-(5-methyl-1,2,4-oxadiazol-3-yl)piperidin-1-yl)methanone] |  | 6.9% | 
favorable oral absorbability |  | COc1ccc(CC2(C(=O)O)CCN(C(=O)c3cccc(Cl)c3F)CC2)nc1Nc1cc(C)[nH]n1 [Example 11, 1-(3-chloro-2-fluorobenzoyl)-4-((5-methoxy-6-(5-methyl-1H-pyrazol-3-ylamino)pyridin-2-yl)methyl)piperidine-4-carboxylic acid] |  |  | 
favorable oral absorbability |  | Cc1cc(Nc2nc(CC3(C(=O)O)CCN(C(=O)c4cccc(Cl)c4F)CC3)ccc2Cl)n[nH]1 [Example 12, 1-(3-chloro-2-fluorobenzoyl)-4-((5-chloro-6-(5-methyl-1H-pyrazol-3-ylamino)pyridin-2-yl)methyl)piperidine-4-carboxylic acid] |  |  | 
favorable oral absorbability | 120 nM | Cc1cc(Nc2nc(CC3(C(=O)O)CCN(C(=O)c4cccc(Cl)c4Cl)CC3)ccc2F)n[nH]1 [Example 1, 1-(2,3-dichlorobenzoyl)-4-((5-fluoro-6-(5-methyl-1H-pyrazol-3-ylamino)pyridin-2-yl)methyl)piperidine-4-carboxylic acid] |  |  | 
 |  | CC(=O)O[C@H]1C(=O)[C@@]2(C)[C@H]([C@H](OC(=O)c3ccccc3)[C@]3(O)C[C@H](OC(=O)[C@H](O)[C@@H](NC(=O)c4ccccc4)c4ccccc4)C(C)=C1C3(C)C)[C@]1(OC(C)=O)CO[C@@H]1C[C@@H]2O [Paclitaxel, paclitaxel, reference compound] | 5.4% | 7.8% | 3.0%
